What all share (assay type): functional
The subject of one experiment is MDA-MB-468. As to the kind of experiment: Cytotoxicity against human MDA-MB-468 cells assessed as growth inhibition at 10 uM after 48 hrs by coulter counter analysis. The conditions noted are these: MDA-MB-468, 48 h, read-out: GI.
The subject of the next experiment is SF-268. The experiment in a line: Cytotoxicity against human SF268 cells assessed as growth inhibition at 10 uM after 48 hrs by coulter counter analysis. The conditions noted are these: SF-268, 48 h, read-out: GI.
Another experiment has as its system SK-MEL-5. The experiment in a line: Cytotoxicity against human SK-MEL-5 cells assessed as growth inhibition at 10 uM after 48 hrs by coulter counter analysis. The following applies: SK-MEL-5, 48 h, read-out: GI.
For another experiment, the system named is SNB-75. The experiment in a line: Cytotoxicity against human SNB75 cells assessed as growth inhibition at 10 uM after 48 hrs by coulter counter analysis. The following applies: SNB-75, 48 h, read-out: GI.
The test system of another experiment is A549. The experiment in a line: Cytotoxicity against human A549 cells assessed as growth inhibition at 10 uM after 48 hrs by coulter counter analysis. The following applies: A549, 48 h, read-out: GI.
A further experiment deals with T47D. The experiment in a line: Cytotoxicity against human T47D cells assessed as growth inhibition at 10 uM after 48 hrs by coulter counter analysis. The following applies: read-out: GI.
Another experiment has as its system SNB-19. As to the kind of experiment: Cytotoxicity against human SNB19 cells assessed as growth inhibition at 10 uM after 48 hrs by coulter counter analysis. The following applies: SNB-19, 48 h, read-out: GI.
Another experiment relates to BT-549. As to the kind of experiment: Cytotoxicity against human BT549 cells assessed as growth inhibition at 10 uM after 48 hrs by coulter counter analysis. The conditions noted are these: BT-549, 48 h, read-out: GI.
The next experiment has as its system OVCAR-3. As to the kind of experiment: Cytotoxicity against human OVCAR3 cells assessed as growth inhibition at 10 uM after 48 hrs by coulter counter analysis. The conditions noted are these: OVCAR-3, 48 h, read-out: GI.
A further experiment concerns HCT-116. As to the kind of experiment: Cytotoxicity against human HCT116 cells assessed as growth inhibition at 10 uM after 48 hrs by coulter counter analysis. The following applies: HCT-116, 48 h, read-out: GI.
Another experiment relates to NCI-H322M. The experiment in a line: Cytotoxicity against human NCI-H322M cells assessed as growth inhibition at 10 uM after 48 hrs by coulter counter analysis. The following applies: read-out: GI.
For a further experiment, the system named is OVCAR-8. The experiment in a line: Cytotoxicity against human OVCAR8 cells assessed as growth inhibition at 10 uM after 48 hrs by coulter counter analysis. The following applies: OVCAR-8, 48 h, read-out: GI.
A further experiment has as its system SN12C. The experiment in a line: Cytotoxicity against human SN12C cells assessed as growth inhibition at 10 uM after 48 hrs by coulter counter analysis. The following applies: read-out: GI.
For another experiment, the system named is SK-MEL-28. As to the kind of experiment: Cytotoxicity against human SK-MEL-28 cells assessed as growth inhibition at 10 uM after 48 hrs by coulter counter analysis. The conditions noted are these: SK-MEL-28, 48 h, read-out: GI.
The next experiment deals with MCF7. As to the kind of experiment: Cytotoxicity against human MCF7 cells assessed as growth inhibition at 10 uM after 48 hrs by coulter counter analysis. The conditions noted are these: MCF7, 48 h, read-out: GI.
For the next experiment, the system named is MOLT-4. The experiment in a line: Cytotoxicity against human MOLT4 cells assessed as growth inhibition at 10 uM after 48 hrs by coulter counter analysis. The following applies: MOLT-4, 48 h, read-out: GI.

Some results are limits rather than exact numbers.

`CCOC(=O)c1ccc(NC(=O)CSc2nc3ccccc3c(=O)n2CCc2ccccc2)cc1`: the inhibition of growth at 10 µM in the experiment with MDA-MB-468 worked out at 18%; in the experiment with SF-268, 33%; with SK-MEL-5, 21%; in the experiment with SNB-75, 39%; in the experiment on A549, 27%; with T47D it was 17%. Also, the inhibition of growth at 10 µM is 36% in the experiment with SNB-19; 12% in the experiment on BT-549; 13% in the experiment on OVCAR-3; 14% in the experiment on HCT-116; 23% with NCI-H322M; 37% in the experiment on OVCAR-8. Further, the figures for the inhibition of growth at 10 µM in the experiment on SN12C, in the experiment on SK-MEL-28 and with MCF7 were < 10%, 14% and 12%, respectively.
For the compound `COc1cc(OC(=O)CSc2nc3ccccc3c(=O)n2CCc2ccccc2)cc(OC)c1OC`, the inhibition of growth at 10 µM was < 10% in the experiment with MDA-MB-468; < 10% in the experiment on SF-268; < 10% with SK-MEL-5; 12% in the experiment with SNB-75; 10% in the experiment with A549; 26% in the experiment on T47D. Further, the inhibition of growth at 10 µM in the experiment with SNB-19 is < 10%; in the experiment with BT-549, 10%; in the experiment on OVCAR-3, < 10%; in the experiment with HCT-116, 20%; in the experiment with NCI-H322M, 11%; in the experiment with OVCAR-8, < 10%. In addition, the figures for the inhibition of growth at 10 µM with SN12C, with SK-MEL-28 and with MCF7 were 10%, < 10% and 34%, respectively.
`CCOc1ccc(NC(=O)CSc2nc3ccccc3c(=O)n2CCc2ccccc2)cc1`: the inhibition of growth at 10 µM is 10% with MDA-MB-468; 25% with SF-268; < 10% in the experiment with SK-MEL-5; 21% in the experiment with SNB-75; 10% in the experiment with MOLT-4; 13% in the experiment with A549. For the same compound, the inhibition of growth at 10 µM with T47D is 15%; in the experiment with SNB-19 it was < 10%; with BT-549, < 10%; in the experiment with OVCAR-3, < 10%; in the experiment with HCT-116, 16%; in the experiment on NCI-H322M it was 23%. Also, the inhibition of growth at 10 µM in the experiment with OVCAR-8 is 29%; in the experiment on SN12C it was < 10%; with SK-MEL-28, < 10%; with MCF7, 12%.
For the compound `O=C(CSc1nc2ccccc2c(=O)n1CCc1ccccc1)NCc1ccccc1`, the inhibition of growth at 10 µM with MDA-MB-468 is < 10%; with SF-268, 28%; in the experiment on SK-MEL-5, 22%; with SNB-75 it was 38%; with A549 it was 17%; in the experiment on T47D, 20%. Besides, the inhibition of growth at 10 µM is 17% in the experiment on SNB-19; < 10% in the experiment on BT-549; 10% in the experiment with OVCAR-3; 27% with HCT-116; 26% with NCI-H322M; 40% in the experiment on OVCAR-8. For the same compound, the results for the inhibition of growth at 10 µM in the experiment on SN12C, in the experiment with SK-MEL-28 and with MCF7 were 20%, 12% and 21%, respectively.
For the compound `COc1ccc(NC(=O)CSc2nc3ccccc3c(=O)n2CCc2ccccc2)cc1`, the inhibition of growth at 10 µM with MDA-MB-468 is 13%; in the experiment with SF-268 it was 47%; in the experiment with SK-MEL-5 it was 10%; in the experiment on SNB-75, 72%; with A549, 25%; with T47D, < 10%. In addition, the inhibition of growth at 10 µM with SNB-19 came to 41%; with BT-549 it was 10%; in the experiment with OVCAR-3 it was 10%; in the experiment on HCT-116 it was 13%; in the experiment with NCI-H322M, 19%; in the experiment on OVCAR-8 it was 40%. The inhibition of growth at 10 µM in the experiment with SN12C was < 10%; in the experiment with SK-MEL-28 it was 11%; in the experiment with MCF7 it was 11%.
As for `O=C(CSc1nc2ccccc2c(=O)n1CCc1ccccc1)Nc1ccc(Cl)cc1`, the inhibition of growth at 10 µM stood at 36% with MDA-MB-468; 40% with SF-268; 22% in the experiment with SK-MEL-5; 63% with SNB-75; 16% in the experiment on A549; 56% in the experiment with T47D. Also, the inhibition of growth at 10 µM with SNB-19 was 30%; in the experiment with OVCAR-3 it was 32%; in the experiment with HCT-116, 23%; with NCI-H322M it was 13%; with OVCAR-8 it was 39%; in the experiment on SN12C, 13%. Further, the inhibition of growth at 10 µM in the experiment on SK-MEL-28 was 10%; in the experiment on MCF7, 30%.
For `CC(=O)c1ccc(NC(=O)CSc2nc3ccccc3c(=O)n2CCc2ccccc2)cc1`, the inhibition of growth at 10 µM with MDA-MB-468 came out at 14%; with SF-268, 32%; in the experiment on SK-MEL-5 it was 25%; with SNB-75, 41%; in the experiment on A549, 29%; in the experiment with T47D, 19%. Besides, the inhibition of growth at 10 µM in the experiment with SNB-19 was 20%; in the experiment with BT-549, < 10%; in the experiment with OVCAR-3 it was 23%; in the experiment with HCT-116 it was 37%; in the experiment with NCI-H322M, 27%; with OVCAR-8, 42%. The inhibition of growth at 10 µM in the experiment on SN12C is 13%; in the experiment with SK-MEL-28, 23%; with MCF7, 16%.
In the case of `O=C(CSc1nc2ccccc2c(=O)n1CCc1ccccc1)Oc1ccc(Cl)cc1`, the inhibition of growth at 10 µM in the experiment on MDA-MB-468 is < 10%; in the experiment on SF-268, < 10%; in the experiment with SK-MEL-5, < 10%; in the experiment with SNB-75, 28%; with A549, < 10%; with T47D, 14%. Further, the inhibition of growth at 10 µM was < 10% with SNB-19; 15% with BT-549; < 10% in the experiment with OVCAR-3; < 10% with HCT-116; < 10% in the experiment with NCI-H322M; < 10% with OVCAR-8. Also, the inhibition of growth at 10 µM in the experiment on SN12C was < 10%; in the experiment with SK-MEL-28, < 10%; in the experiment with MCF7 it was 34%.
Regarding `O=C(CSc1nc2ccccc2c(=O)n1CCc1ccccc1)Nc1cc(Cl)ccc1C(=O)O`, the inhibition of growth at 10 µM in the experiment on MDA-MB-468 was < 10%; in the experiment with SF-268, < 10%; with SK-MEL-5, < 10%; with SNB-75, 20%; with A549, < 10%; with T47D, < 10%. Moreover, the inhibition of growth at 10 µM in the experiment on SNB-19 is < 10%; in the experiment on BT-549, 10%; with OVCAR-3, < 10%; in the experiment with HCT-116, < 10%; with NCI-H322M, < 10%; in the experiment with OVCAR-8, < 10%. Moreover, the inhibition of growth at 10 µM in the experiment on SN12C, in the experiment on SK-MEL-28 and with MCF7 was < 10% throughout.
With `O=C(CSc1nc2ccccc2c(=O)n1CCc1ccccc1)Nc1ccccc1C(=O)O`, the inhibition of growth at 10 µM worked out at 14% in the experiment with MDA-MB-468; 33% with SF-268; 35% in the experiment with SK-MEL-5; 74% in the experiment on SNB-75; 46% in the experiment on A549; 27% in the experiment on T47D. Also, the inhibition of growth at 10 µM came to 40% in the experiment on SNB-19; 10% in the experiment on BT-549; 29% in the experiment on OVCAR-3; 45% in the experiment on HCT-116; 19% with NCI-H322M; 61% with OVCAR-8. The inhibition of growth at 10 µM was < 10% with SN12C, 17% with SK-MEL-28 and 21% with MCF7.

For the origin of these results see ChEMBL document CHEMBL2396621, “Design, synthesis and biological evaluation of 2-mercapto-3-phenethylquinazoline bearing anilide fragments as potential antitumor agents: molecular docking study” (2013).
